In patent US12559497B2, “Imidazopiperazine inhibitors of transcription activating proteins” (Board of Regents, The University of Texas System, priority 2020, dated 2026):
Each block holds one compound with its values, some of them ahead of it.

Key:
[1] = Metabolic stability in mouse liver microsomes; assay type: in vitro ADME, CD-1 mouse; conditions: CD-1, liver microsomes, pH 7.4, 0.5 mg/mL microsomes, NADPH, 45 minutes, 37° C., read-out: Half-life in liver microsomes (t1/2)
Protocol: (§1) Microsomal stability. Microsomal stability assays were conducted on a Beckmann Biomek FXp laboratory automation system. The liver microsomal incubation mixture consisted of liver microsomes (0.5 mg microsomal protein/mL), the Compound (1 μM), MgCl2 (3 mM), and EDTA (1 mM) in potassium phosphate buffer (100 mM, pH 7.4). Midazolam and Ketanserin were used as the assay control substrates. The reaction was initiated with the addition of an NADPH regeneration solution (1.3 mM NADPH) and maintained at 37° C. with shaking. At five time points ranging from 0 to 45 min, aliquots (50 μL) were removed and quenched with acetonitrile (100 μL) containing an internal standard (imipramine). After vortex and centrifugation, samples were analyzed by LC-MS/MS. Calculation of the in vitro half-lives and clearance followed literature guidelines.

[2] = Metabolic stability in rat liver microsomes; assay type: in vitro ADME; conditions: Sprague Dawley, pH 7.4, 0.5 mg/mL microsomes, NADPH, 45 minutes, 37° C., read-out: Half-life in liver microsomes (t1/2)
Protocol: as §1

[3] = target: T1, BRD4 (49-170) bromodomain (Homo sapiens, UniProt O60885); test: BRD4 AlphaScreen assay; conditions: binding to biotin-H4 (1-21) Ac-K5/8/12/16
T1 construct: The GST tagged bromodomains of CBP (1081-1197) and BRD4 (49-170) were obtained from BPS Bioscience; purchased BPS Bioscience
Protocol: (§2) Specific binding of the CBP or BRD4 bromodomain to the acetylated peptide derived from the H4 histone substrate (tetra acetylated H4 (1-21) Ac—K5/8/12/16) was measured in absence or presence of inhibitors. The GST tagged bromodomains of CBP (1081-1197) and BRD4 (49-170) were obtained from BPS Bioscience and binding to the biotinylated H4 (1-21) Ac—K5/8/12/16 (AnaSpec. 64989) was assessed via AlphaScreen technology (Perkin Elmer).
(§3) BRD4 AlphaScreen assay: The binding of 2.5 nM of BRD4 (49-170) to 10 nM biotin-H4 (1-21) Ac—K5/8/12/16 (AnaSpec. 64989) was assessed following the same procedure described for the CBP assay. The standard dose response curves were fitted by Genedata Screener software using the variable-slope model: Signal=Signalnegative control+(SignalDMSO control−Signalnegative control)/(1+(IC50/Dose)∧Hill slope).
(§4) Only Signal and Dose in the equation were treated as known values.

[4] = In vivo pharmacokinetics after a single dose, rat; conditions: male, plasma, Sprague-Dawley rat
Protocol: (§5) IV (intravenous) doses were formulated in 20% DMSO+60% PEG400+20% water. PO (per os) doses were formulated in 0.5% methylcellulose in water.
Rat: Male rats (SD strain, purchased from Shanghai JH Laboratory Animal Co. LTD) weighing 200-300 g were used for studies. Animals were fasted overnight and fed 4 h postdose. Water was available ad libitum for all animals. Test article was dosed via dorsal foot vein (IV doses) or oral gavage (PO doses). Blood samples were collected via tail vein from all animals at predose and at 0.083, 0.25, 0.5, 1, 2, 4, 8, and 24 h postdose into tubes containing the anticoagulant K2EDTA. Plasma was separated from the blood by centrifugation at 4° C. and stored at −70° C. until analysis. Test article concentrations in plasma were quantified using a liquid chromatography with tandem mass spectrometry (LC-MS/MS) method.

[5] = Metabolic stability in monkey liver microsomes; assay type: in vitro ADME; conditions: pH 7.4, read-out: Liver microsomal clearance (t1/2)
Protocol: as §1

[6] = Metabolic stability in dog liver microsomes; assay type: in vitro ADME; conditions: pH 7.4, read-out: Liver microsomal clearance (t1/2)
Protocol: as §1

[7] = In vivo pharmacokinetics after a single dose, dog; conditions: male, plasma, Beagle dog
Protocol: as §5
(§6) Dog: Male Beagle dogs (purchased from Beijing Marshall Biotechnology Co., Ltd) weighing 7-10 kg were used for studies. Animals were fasted overnight and fed 4 h postdose. Test article was administered to dogs via the cephalic vein (IV doses) or oral gavage (PO doses). Blood samples were collected via the saphenous vein or cephalic vein from all animals at predose and 0.083, 0.25, 0.5, 1, 2, 4, 8, and 24 h postdose into tubes containing the anticoagulant K2EDTA. Plasma was separated from the blood by centrifugation at 4° C. and stored at −70° C. until analysis. Test article concentrations in plasma were quantified using a liquid chromatography with tandem mass spectrometry (LC-MS/MS) method.

DOHH2 cells = test: DOHH2 Proliferation Assay; assay type: cell-based; conditions: Homo sapiens, DOHH-2, 168 h; CellTiter-Glo viability on day 7
Protocol: DOHH2 Proliferation Assay: On day 1, 1000 DOHH2 cells were seeded to a 384-well TC plate (PerkinElmer #6007680) in 40 μL RPMI 1640 media, followed by the addition of CBP inhibitors except for column 13 where 3.3 μM staurosporine was added as negative control. DMSO was 0.1% in all the wells. The cells were lysed in and counted viability by 40 μL CellTiter-Glo (Promega #G9243) on day 7. The luminescent signal was quantified by Envision Multilabel plate reader and the standard dose response curves were fitted by Genedata Screener software using the variable-slope model: Signal=Signalnegative control+(SignalDMSO control−Signalnegative control)/(1+(IC50/Dose)∧Hill slope).
as §4

[8] = In vivo pharmacokinetics after a single dose, monkey; conditions: male, plasma, Cynomolgus monkey
Protocol: as §5
as §6, with “Monkey:” for “Dog:”, “Cynomolgus monkeys” for “Beagle dogs”, “Hainan Jingang Biotech.” for “Beijing Marshall Biotechnology”, “3-5” for “7-10”, “monkeys” for “dogs”, “nasal” for “oral”

[9] = In vivo pharmacokinetics after a single dose, mouse; set-up: species or system Female CD-1 Mice; conditions: for mouse in vivo clearances compared to the structural analogs previously disclosed / mouse in vivo half-lives compared to the structural analogs previously disclosed: in words; for clearance / half-life / Vd: plasma, Female CD-1 mice, single dose 0.2 or 0.3 mg/kg IV; for Vd: read-out: Vss
Protocol: as §5
Mouse: Female mice (CD1 strain, purchased from Shanghai JH Laboratory Animal Co. LTD) weighing 20-30 g were used for studies. Food and water were available to all animals ad libitum. The test article was dosed via tail vein (IV doses) or oral gavage (PO doses), respectively. Blood samples were collected from all animals at predose and at 0.083, 0.25, 0.5, 1, 2, 4, 8, and 24 h postdose into tubes containing the anticoagulant K2EDTA (3 animals per time point with 3 time points collected per animal). Plasma was separated from the blood by centrifugation at 4° C. and stored at −70° C. until analysis. Test article concentrations in plasma were quantified using a liquid chromatography with tandem mass spectrometry (LC-MS/MS) method.

[10] = target: T2, GST-CBP (1081-1197) bromodomain (Homo sapiens, UniProt Q92793); test: CBP AlphaScreen assay; conditions: binding to biotin-H4 (1-21) Ac-K5/8/12/16
T2 construct: The GST tagged bromodomains of CBP (1081-1197) and BRD4 (49-170) were obtained from BPS Bioscience; purchased BPS Bioscience
T2 sequence (Q92793 1081-1197): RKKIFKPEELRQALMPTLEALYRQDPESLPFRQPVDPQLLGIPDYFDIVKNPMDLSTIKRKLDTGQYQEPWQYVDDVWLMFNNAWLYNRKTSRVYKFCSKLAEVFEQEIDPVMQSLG
Protocol: as §2
CBP AlphaScreen assay: 5 nM GST-CBP (1081-1197) and 20 nM biotin-H4 (1-21) Ac—K5/8/12/16 (AnaSpec. 64989) were incubated with varying concentrations of CBP inhibitors in 15 μL of buffer containing 50 mM HEPES 7.5, […], 1 mM TCEP, and 0.003% Tween-20. After 30 minutes incubation at room temperature, 15 μL of detection buffer (BPS Bio. 33006) containing 7 μg/mL of Glutathione AlphaLisa acceptor beads (Perkin Elmer AL109) and 14 μg/mL of Streptavidin donor beads (Perkin Elmer 676002) was then added to the previous mixture. The reaction was incubated for an additional 2 hours at room temperature, and the AlphaScreen signal was quantified using the Envision Multilabel plate reader. As negative control, GST-CBP (1081-1197) was incubated with the non-acetylated biotin-H4 (1-21) peptide (AnaSpec. 62555) and in presence of 0.25% of final DMSO concentration.
as §3, §4

[11] = Metabolic stability in human liver microsomes; assay type: in vitro ADME; conditions: pH 7.4, 0.5 mg/mL microsomes, NADPH, 45 minutes, 37° C., read-out: Half-life in liver microsomes (t1/2)
Protocol: as §1

[12] = 1 mg/kg IV single dose, read-out: Vss

half-life at 1 μM [1]: 6.55 h
half-life at 1 μM [2]: 20.4 h
IC50 [3]: 13.2 µM
clearance ([4]; 1 mg/kg IV single dose): 0.673 L/h/kg
half-life ([4]; 1 mg/kg IV single dose): 3.82 h
Vd [4, 12]: 2.31 L/kg
AUC(0-t) ([4]; 30 mg/kg PO single dose): 124 µM·h
Cmax ([4]; 30 mg/kg PO single dose): 23 µM
bioavailability ([4]; 30 mg/kg PO single dose): 129%
half-life at 1 μM [5]: 1.62 h
half-life at 1 μM [6]: 11.9 h
clearance ([7]; 1 mg/kg IV single dose): 0.258 L/h/kg
half-life ([7]; 1 mg/kg IV single dose): 9.74 h
Vd [7, 12]: 3.38 L/kg
AUC(0-t) ([7]; 3 mg/kg PO single dose): 26.2 µM·h
Cmax ([7]; 3 mg/kg PO single dose): 2.56 µM
bioavailability ([7]; 3 mg/kg PO single dose): 119%
clearance ([8]; 1 mg/kg IV single dose): 0.418 L/h/kg
half-life ([8]; 1 mg/kg IV single dose): 4.74 h
Vd [8, 12]: 2.28 L/kg
AUC(0-t) ([8]; 3 mg/kg PO single dose): 11.3 µM·h
Cmax ([8]; 3 mg/kg PO single dose): 1.97 µM
bioavailability ([8]; 3 mg/kg PO single dose): 70.5%
mouse in vivo clearances compared to the structural analogs previously disclosed [9]: dramatic decrease
mouse in vivo half-lives compared to the structural analogs previously disclosed [9]: increase
clearance [9]: 0.372 L/h/kg
half-life [9]: 2.99 h
Vd [9]: 1.45 L/kg
IC50 [10]: 0.007 µM
half-life at 1 μM [11]: 5.17 h
Compound: CC(=O)N1CCn2c(C3CCOCC3)nc(-c3cccc4cc(-c5cnc(C)s5)ncc34)c2C1 [Compound 1, 1-(1-(3-(2-methylthiazol-5-yl)isoquinolin-8-yl)-3-(tetrahydro-2H-pyran-4-yl)-5,6-dihydroimidazo[1,5-α]pyrazin-7 (8H)-yl)ethan-1-one]
IC50 (DOHH2 cells): 0.261 µM

IC50 [3]: 25 µM
IC50 [10]: 0.015 µM
Compound: CNC(=O)c1ccc(-c2cc3cccc(-c4nc(C5CC5)n5c4CN(C(C)=O)CC5)c3cn2)cn1 [Compound 2, 5-(8-(7-Acetyl-3-cyclopropyl-5,6,7,8-tetrahydroimidazo[1,5-α]pyrazin-1-yl)isoquinolin-3-yl)-N-methylpicolinamide]
IC50 (DOHH2 cells): 0.376 µM

half-life at 1 μM [1]: 8.03 h
half-life at 1 μM [2]: 5.03 h
IC50 [3]: 15 µM
mouse in vivo clearances compared to the structural analogs previously disclosed [9]: dramatic decrease
mouse in vivo half-lives compared to the structural analogs previously disclosed [9]: increase
clearance [9]: 0.713 L/h/kg
half-life [9]: 2.55 h
Vd [9]: 1.84 L/kg
IC50 [10]: 0.016 µM
half-life at 1 μM [11]: 4.82 h
Compound: CNC(=O)c1ccc(-c2cc3cccc(-c4nc(C5CCOCC5)n5c4CN(C(C)=O)CC5)c3cn2)cn1 [Compound 3, 5-(8-(7-Acetyl-3-(tetrahydro-2H-pyran-4-yl)-5,6,7,8-tetrahydroimidazo[1,5-α]pyrazin-1-yl)isoquinolin-3-yl)-N-methylpicolinamide]
IC50 (DOHH2 cells): 0.232 µM

IC50 [3]: 17 µM
IC50 [10]: 0.022 µM
Compound: CNC(=O)c1ccc(-c2cc3cccc(-c4nc(C56CCC(CC5)OC6)n5c4CN(C(C)=O)CC5)c3cn2)cn1 [Compound 4, 5-(8-(7-acetyl-3-(2-oxabicyclo[2.2.2]octan-4-yl)-5,6,7,8-tetrahydroimidazo[1,5-α]pyrazin-1-yl)isoquinolin-3-yl)-N-methylpicolinamide]
IC50 (DOHH2 cells): 0.676 µM

IC50 [3]: 20.4 µM
IC50 [10]: 0.034 µM
Compound: CNC(=O)c1ccc(-c2cc3ccc(F)c(-c4nc(C5CCOCC5)n5c4CN(C(C)=O)CC5)c3cn2)cn1 [Compound 5, 5-(8-(7-Acetyl-3-(tetrahydro-2H-pyran-4-yl)-5,6,7,8-tetrahydroimidazo[1,5-α]pyrazin-1-yl)-7-fluoroisoquinolin-3-yl)-N-methylpicolinamide]
IC50 (DOHH2 cells): 0.216 µM

IC50 [3]: 22.2 µM
IC50 [10]: 0.014 µM
Compound: CC(=O)N1CCn2c(C3CCOCC3)nc(-c3c(F)ccc4cc(-c5cnc(C)s5)ncc34)c2C1 [Compound 6, 1-(1-(7-fluoro-3-(2-methylthiazol-5-yl)isoquinolin-8-yl)-3-(tetrahydro-2H-pyran-4-yl)-5,6-dihydroimidazo[1,5-α]pyrazin-7 (8H)-yl)ethan-1-one]
IC50 (DOHH2 cells): 0.541 µM

half-life at 1 μM [1]: 10.2 h
half-life at 1 μM [2]: 9 h
clearance [9]: 3.29 L/h/kg
half-life [9]: 0.588 h
Vd [9]: 2 L/kg
half-life at 1 μM [11]: 7.7 h
Compound: CNC(=O)c1ccc(-c2cc3cccc(-c4nc(C5CCOCC5)n5c4CN(C(=O)NC)CC5)c3cn2)cn1 [Compound 8, reference compound]
